This is an account of results in ChEMBL document CHEMBL3826933, “Discovery of 7-(Prolinol-N-yl)-2-phenylamino-thiazolo[5,4-d]pyrimidines as Novel Non-Nucleoside Partial Agonists for the A2A Adenosine Receptor: Prediction from Molecular Modeling” (J Med Chem, 2016).

≈ marks a conversion by molar mass, not a printed value.

In data set [1] the target is T1, Adenosine receptor A2a (Homo sapiens, UniProt P29274). Put plainly: Partial agonist activity at recombinant human adenosine A2A receptor expressed in CHOK1 cell membrane assessed as adenylyl cyclase activity at 1 to 100 uM incubated for 20 mins in presence of [alpha32P]ATP relative to NECA. The class given is functional, cell-based. The conditions noted are these: CHO-K1.

Data set [2] is described as follows: Thermodynamic equilibrium solubility of compound in water at 1 to 300 ug after overnight incubation by microplate reader analysis. The conditions noted are these: read-out: Therm_solubility. The class given is physicochemical.
The target in the next data set is T2, Adenosine receptor A1 (Homo sapiens, UniProt P30542).
T2 sequence (P30542 whole entry): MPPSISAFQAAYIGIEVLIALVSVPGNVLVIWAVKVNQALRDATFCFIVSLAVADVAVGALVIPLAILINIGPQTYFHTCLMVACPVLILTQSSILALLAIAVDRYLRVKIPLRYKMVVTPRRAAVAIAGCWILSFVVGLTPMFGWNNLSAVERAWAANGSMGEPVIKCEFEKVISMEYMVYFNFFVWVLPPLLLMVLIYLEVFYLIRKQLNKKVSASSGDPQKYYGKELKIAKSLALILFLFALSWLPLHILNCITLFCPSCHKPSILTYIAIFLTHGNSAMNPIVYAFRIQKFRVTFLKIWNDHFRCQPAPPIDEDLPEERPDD
Kind of data set: Displacement of [3H]CCPA from recombinant human adenosine A1 receptor expressed in CHO cell membrane after 3 hrs by microbeta scintillation counting method. In kind it is cell membranes.

The target in data set [3] is T1, Adenosine receptor A2a. Kind of data set: Displacement of [3H]NECA from recombinant human adenosine A2A receptor expressed in CHO cell membrane after 3 hrs by microbeta scintillation counting method. In kind it is cell membranes. A general note: In a radioligand displacement assay an active substance lowers the binding of a labelled ligand.
A further data set addresses T3, Adenosine receptor A2b (Homo sapiens, UniProt P29275).
T3 sequence (P29275 whole entry): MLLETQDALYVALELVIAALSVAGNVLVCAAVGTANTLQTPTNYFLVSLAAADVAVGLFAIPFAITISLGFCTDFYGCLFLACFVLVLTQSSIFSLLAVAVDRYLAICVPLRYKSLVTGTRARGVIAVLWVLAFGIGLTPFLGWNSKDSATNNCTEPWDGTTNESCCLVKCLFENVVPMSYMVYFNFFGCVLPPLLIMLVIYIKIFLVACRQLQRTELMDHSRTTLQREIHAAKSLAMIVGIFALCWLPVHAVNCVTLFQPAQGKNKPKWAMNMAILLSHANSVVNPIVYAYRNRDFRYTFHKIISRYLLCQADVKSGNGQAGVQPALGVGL
Kind of data set: Antagonist activity at recombinant human adenosine A2B receptor expressed in CHOK1 cell membrane assessed as inhibition of NECA-stimulated adenylyl cyclase activity incubated for 20 mins in presence of [alpha32P]ATP. The class given is functional, cell-based, CHO-K1.

For another data set, the target named is T4, Adenosine receptor A3 (Homo sapiens, UniProt P0DMS8).
T4 sequence (P0DMS8 whole entry): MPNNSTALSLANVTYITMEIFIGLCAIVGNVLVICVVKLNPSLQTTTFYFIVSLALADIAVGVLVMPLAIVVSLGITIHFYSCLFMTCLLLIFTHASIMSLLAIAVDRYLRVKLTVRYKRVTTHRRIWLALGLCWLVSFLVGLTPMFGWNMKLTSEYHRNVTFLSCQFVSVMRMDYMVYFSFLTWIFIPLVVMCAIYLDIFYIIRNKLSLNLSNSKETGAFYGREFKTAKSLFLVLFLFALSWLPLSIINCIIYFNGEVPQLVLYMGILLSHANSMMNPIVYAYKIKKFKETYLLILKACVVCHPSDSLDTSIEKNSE
Put plainly: biochemical.

Data set [4] concerns CHO. Kind of data set: Selectivity ratio of Ki for recombinant human adenosine A3 receptor expressed in CHO cell membrane to Ki for recombinant human adenosine A2A receptor expressed in CHO cell membrane. In kind it is cell-based.
The test system of data set [5] is CHO. Kind of data set: Selectivity ratio of Ki for recombinant human adenosine A1 receptor expressed in CHO cell membrane to Ki for recombinant human adenosine A2A receptor expressed in CHO cell membrane. In kind it is cell-based.
The target of data set [6] is T1, Adenosine receptor A2a. Put plainly: Partial agonist activity at recombinant human adenosine A2A receptor expressed in CHOK1 cell membrane assessed as adenylyl cyclase activity at 100 uM incubated for 20 mins in presence of [alpha32P]ATP relative to NECA. In kind it is functional, cell-based. The conditions noted are these: CHO-K1.
The nature of data set [7]: Thermodynamic equilibrium solubility of compound in phosphate buffered saline at 1 to 300 ug after overnight incubation by microplate reader analysis. The conditions noted are these: read-out: Therm_solubility. In kind it is physicochemical.
Data set [8] is described as follows: Thermodynamic equilibrium solubility of compound in simulated gastric fluid at 1 to 300 ug after overnight incubation by microplate reader analysis. The class given is ADME. The conditions noted are these: read-out: Therm_solubility.

T1 sequence (P29274 whole entry): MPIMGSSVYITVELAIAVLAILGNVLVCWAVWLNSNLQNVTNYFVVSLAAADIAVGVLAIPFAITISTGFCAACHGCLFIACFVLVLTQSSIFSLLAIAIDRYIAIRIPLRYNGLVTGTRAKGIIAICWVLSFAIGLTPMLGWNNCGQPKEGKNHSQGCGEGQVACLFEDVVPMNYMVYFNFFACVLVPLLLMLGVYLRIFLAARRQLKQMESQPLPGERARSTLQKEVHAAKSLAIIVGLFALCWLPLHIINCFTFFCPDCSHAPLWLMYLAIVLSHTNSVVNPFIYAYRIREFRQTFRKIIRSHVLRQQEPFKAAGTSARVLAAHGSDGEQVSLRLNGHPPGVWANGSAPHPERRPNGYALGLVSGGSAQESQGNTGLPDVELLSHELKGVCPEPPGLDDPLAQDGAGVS
Description for Adenosine receptor A3: Displacement of [3H]HEMADO from recombinant human adenosine A3 receptor expressed in CHO cell membrane after 3 hrs by microbeta scintillation counting method

The Ki is the dissociation constant of the complex between target and ligand, obtained from inhibition or displacement. On to `Cc1ccc(Nc2nc3c(N4CCCC4)ncnc3s2)cc1`, for which the Efficacy on Adenosine receptor A2a [1] was 10%. For the same compound, the solubility thermodynamic in data set [2] is greater than 150 µg/mL. Further, the Ki at Adenosine receptor A1 is greater than 100000 nM; on Adenosine receptor A2a [3], 974 nM; at Adenosine receptor A2b, greater than 10000 nM; at Adenosine receptor A3, 563 nM.
Take `OC[C@@H]1CCCN1c1ncnc2sc(Nc3cccc(Br)c3)nc12`: the solubility thermodynamic in data set [2] was found to be 160 µg/mL (≈ 0.394 mM). The inhibition constant (Ki) at Adenosine receptor A1 was 530 nM; at Adenosine receptor A2a [3] it was 153 nM; on Adenosine receptor A2b it was greater than 10000 nM; on Adenosine receptor A3, 1070 nM. Further, the Ratio Ki with CHO [4] and with CHO [5] was 3 in each case. The Efficacy on Adenosine receptor A2a [6] is 50%.
On to `OC[C@@H]1CCCN1c1ncnc2sc(Nc3ccccc3)nc12`, for which the solubility thermodynamic in [2] is 4300 µg/mL (≈ 13.1 mM); in [7], 4800 µg/mL (≈ 14.7 mM); in data set [8] it was 3500 µg/mL (≈ 10.7 mM). Besides, the inhibitory constant (Ki) on Adenosine receptor A1 was 555 nM; at Adenosine receptor A2a [3], 200 nM; on Adenosine receptor A2b, greater than 10000 nM; at Adenosine receptor A3, 978 nM. The Ratio Ki with CHO [4] and with CHO [5] was 3 each time. Moreover, on Adenosine receptor A2a [6], the Efficacy worked out at 50%.
Turning to `Brc1cccc(Nc2nc3c(N4CCCC4)ncnc3s2)c1`, the Efficacy at Adenosine receptor A2a [1] turned out to be 10%. For the same compound, the solubility thermodynamic in data set [2] was greater than 150 µg/mL. The Ki was greater than 100000 nM at Adenosine receptor A1, 245 nM on Adenosine receptor A2a [3], greater than 10000 nM at Adenosine receptor A2b and 1290 nM on Adenosine receptor A3.
